Experimental findings from patent US7465743B2, “Pyrazolo[3,4-b]pyridine compounds, and their use as PDE4 inhibitors” (Glaxo Group Limited, priority 2004, dated 2008) are described below.

The target of data set [1] is T1, PDE4B (human recombinant) (Homo sapiens, UniProt Q07343).
T1 construct: made in house
The data set can be described thus: Inhibition of PDE4B activity (radioactive SPA assay or IMAP FP assay). The settings on record: specific Examples; for Selectivity (PDE4B/PDE5 EMR ratio, not log scale): ratio PDE4B vs PDE5, not log scale; for IC50: one reading or average of ca. 2-6 readings, read-out: PDE4B pIC50 (± about 0.5) (converted). It counts as biochemical. The source says: Human recombinant PDE4B, in particular the 2B splice variant thereof (HSPDE4B2B), is disclosed in WO 94/20079 and also M. M. McLaughlin et al., “A low Km, rolipram-sensitive, cAMP-specific phosphodiesterase from human brain: cloning and expression of cDNA, biochemical characterisation of recombinant protein, and tissue distribution of mRNA”, J. Biol. Chem., 1993, 268, 6470-6476. For example, in Example 1 of WO 94/20079, human recombinant PDE4B is described as being expressed in the PDE-deficient yeast Saccharomyces cerevisiae strain GL62, e.g. after induction by addition of 150 uM CuSO4, and 100,000×g supernatant fractions of yeast cell lysates are described for use in the harvesting of PDE4B enzyme.
(§1) Inhibition of PDE 3, PDE 4B, PDE 4D, PDE 5 or PDE 6 Activity: Radioactive Scintillation Proximity Assay (SPA)
(§2) The ability of compounds to inhibit catalytic activity at PDE4B or 4D (human recombinant), PDE3 (from bovine aorta), PDE5 (human recombinant) or PDE6 (from bovine retina) is determined by Scintillation Proximity Assay (SPA) in 96-well format. Test compounds (as a solution in DMSO, preferably about 2 microliter (ul) volume of DMSO solution) are preincubated at ambient temperature (room temperature, e.g. 19-23° C.) in Wallac Isoplates (code 1450-514) with PDE enzyme in 50 mM Tris-HCl buffer pH 7.5, 8.3 mM MgCl2, 1.7 mM EGTA, 0.05% (w/v) bovine serum albumin for 10-30 minutes (usually 30 minutes). The enzyme concentration is adjusted so that no more than 20% hydrolysis of the substrate defined below occurs in control wells without compound, during the incubation. For the PDE3, PDE4B and PDE4D assays, [5′,8-^3H]Adenosine 3′,5′-cyclic phosphate (Amersham Pharmacia Biotech, code TRK.559; or Amersham Biosciences UK Ltd, Pollards Wood, Chalfont St Giles, Buckinghamshire HP8 4SP, UK) is added to give 0.05 uCi per well and ˜10 nM final concentration. For the PDE5 and PDE6 assays, [8-^3H]Guanosine 3′,5′-cyclic phosphate (Amersham Pharmacia Biotech, code TRK.392) is added to give 0.05 uCi per well and ˜36 nM final concentration. Plates containing assay mixture, preferably approx. 100 ul volume of assay mixture, are mixed on an orbital shaker for 5 minutes and incubated at ambient temperature for 1 hour. Phosphodiesterase SPA beads (Amersham Pharmacia Biotech, code RPNQ 0150) are added (˜1 mg per well) to terminate the assay. Plates are sealed and shaken and allowed to stand at ambient temperature for 35 minutes to 1 hour (preferably 35 minutes) to allow the beads to settle. Bound radioactive product is measured using a WALLAC TRILUX 1450 Microbeta scintillation counter. For inhibition curves, 10 concentrations (1.5 nM-30 uM) of each compound are assayed. Curves are analysed using ActivityBase and XLfit (ID Business Solutions Limited, 2 Ocean Court, Surrey Research Park, Guildford, Surrey GU2 7QB, United Kingdom) Results are expressed as pIC50 values.
Inhibition of PDE4B or PDE4D Activity: Fluorescence Polarisation (FP) Assay
The ability of compounds to inhibit catalytic activity at PDE4B (human recombinant) or PDE4D (human recombinant) is determined by IMAP Fluorescence Polarisation (FP) assay (IMAP Explorer kit, available from Molecular Devices Corporation, Sunnydale, Calif., USA; Molecular Devices code: R8062) in 384-well format. The IMAP FP assay is able to measure PDE activity in an homogenous, non-radioactive assay format. The FP assay uses the ability of immobilised trivalent metal cations, coated onto nanoparticles (tiny beads), to bind the phosphate group of Fl-AMP that is produced on the hydrolysis of fluorescein-labelled (Fl) cyclic adenosine mono-phosphate (Fl-cAMP) to the non-cyclic Fl-AMP form. […] Binding of Fl-AMP product to the beads (coated with the immobilised trivalent cations) slows the rotation of the bound Fl-AMP and leads to an increase in the fluorescence polarisation ratio of parallel to perpendicular light. Inhibition of the PDE reduces/inhibits this signal increase. […]

The next data set has as its target PDE5 (human recombinant) (Homo sapiens, UniProt O76074). The data set is described as follows: Inhibition of PDE5 activity (radioactive SPA assay). The format is biochemical. The settings on record: specific Examples; one reading or average of ca. 2-6 readings; read-out: PDE5 pIC50 (± about 0.5) (converted).
Description: Human recombinant PDE5 is disclosed in K. Loughney et al., “Isolation and characterisation of cDNAs encoding PDE5A, a human cGMP-binding, cGMP-specific 3′,5′-cyclic nucleotide phosphodiesterase”, Gene, 1998, 216, 139-147.
as §1, §2
Biological Data obtained for some of the Examples (PDE4B and/or PDE5 inhibitory activity, either as one reading or as an average of ca. 2-6 readings) are as follows, based on current measurements only. In each of the SPA and FP assays, absolute accuracy of measurement is not possible, and the readings given are accurate only up to about ±0.5 of a log unit, depending on the number of readings made and averaged: […]

The test system of data set [2] is conscious ferret (emesis). The data set is described as follows: In Vivo Assay 4: emetic episodes in the conscious ferret after oral PDE4 inhibitor; therapeutic index. Details: species or system ferret (Mustela Pulorius Furo). The settings on record: p.o. Here is the method: (§3) In Vivo Assay 4. Evaluation of Therapeutic Index of Orally-administered PDE 4 inhibitors in the conscious ferret
(§4) PDE4 inhibitors are prepared for oral (p.o.) administration by dissolving in a fixed volume (1 ml) of acetone and then adding cremophor to 20% of the final volume. Acetone is evaporated by directing a flow of nitrogen gas onto the solution. Once the acetone is removed, the solution is made up to final volume with distilled water. LPS is dissolved in phosphate buffered saline.
Male ferrets (Mustela Pulorius Furo, weighing 1-2 kg) are transported and allowed to acclimatise for not less than 7 days. […]
(§5) PDE4 inhibitors are administered orally (p.o.), using a dose volume of 1 ml/kg. […] The animals are constantly observed and any emetic episodes (retching and vomiting) or behavioural changes are recorded. […]
(§6) Thirty minutes after oral dosing with compound or vehicle control, the ferrets are placed into sealed perspex containers and exposed to an aerosol of LPS (30 μg/ml) for 10 minutes. […] All emetic episodes and behavioural changes are recorded.
b) Emetic episodes—the number of vomits and retches are counted to determine the dose of PDE4 inhibitor that gives a 20% incidence of emesis (D20).
c) A therapeutic index (TI), using this assay, is then calculated for each PDE4 inhibitor using the following equation: […]

The test system of data set [3] is LPS-induced pulmonary neutrophilia. The data set is described as follows: In Vivo Assay 4: LPS-induced pulmonary neutrophilia in the conscious ferret. The note with it: p.o. The arrangement: species or system ferret (Mustela Pulorius Furo). Here is the method: as §3, §4
Male ferrets (Mustela Pulorius Furo, weighing 1-2 kg) are transported and allowed to acclimatise for not less than 7 days. The diet comprises SDS diet C pelleted food given ad lib with Whiskers™ cat food given 3 times per week. […]
as §5, §6
Six hours after LPS exposure the animals are killed by overdose of sodium pentobarbitone administered intraperitoneally. […] From this, the total number of neutrophils in the BAL sample is determined. […]

A value given as a limit tells only on which side of the number the result lay.

T1 sequence (Q07343 1-564 isoform Q07343-2): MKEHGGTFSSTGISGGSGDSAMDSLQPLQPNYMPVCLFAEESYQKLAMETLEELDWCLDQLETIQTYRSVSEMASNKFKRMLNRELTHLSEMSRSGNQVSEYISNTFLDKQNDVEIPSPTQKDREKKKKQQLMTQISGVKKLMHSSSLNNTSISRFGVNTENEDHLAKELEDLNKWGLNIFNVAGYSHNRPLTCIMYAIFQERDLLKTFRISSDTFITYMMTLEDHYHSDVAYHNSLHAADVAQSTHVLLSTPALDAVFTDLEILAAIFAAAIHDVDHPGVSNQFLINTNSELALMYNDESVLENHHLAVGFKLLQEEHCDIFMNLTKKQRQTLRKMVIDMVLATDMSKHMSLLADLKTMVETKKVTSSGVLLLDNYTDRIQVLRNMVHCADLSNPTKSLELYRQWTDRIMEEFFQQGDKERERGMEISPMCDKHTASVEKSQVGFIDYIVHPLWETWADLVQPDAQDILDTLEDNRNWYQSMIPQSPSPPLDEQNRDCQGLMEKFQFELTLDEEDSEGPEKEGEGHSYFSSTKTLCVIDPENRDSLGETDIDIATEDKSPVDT

For `CCn1ncc2c(NC(C)(C)C)c(C(=O)NCc3ccccc3)cnc21` [Example 53, 4-(tert-Butylamino)-1-ethyl-N-benzyl-1H-pyrazolo[3,4-b]pyridine-5-carboxamide], in data set [1], the “Selectivity (PDE4B/PDE5 EMR ratio, not log scale)” value worked out at 240 and the IC50 is 15.8 nM. Moreover, at PDE5 (human recombinant), the IC50 is 3980 nM.
The like results for `CCCCNC(=O)c1cnc2c(cnn2CC)c1NCCCC` [4-butylamino-1-ethyl-pyrazolo[3,4-b]pyridine-5-(N-butyl)carboxamide, reference compound] were, in that order, 2, 158 nM and 398 nM.
Regarding `CC[C@H](C)Nc1c(C(=O)NCc2ccccc2)cnc2c1cnn2CC` [compound 59, reference compound], the figures for the IC50 (in data set [1]; at PDE5 (human recombinant)) were 15.8 to 63.1 nM and 631 to 3160 nM, respectively.
For `CCn1ncc2c(N[C@H](C)C(C)C)c(C(=O)Nc3ccc(F)cc3)cnc21` [Example 2, 4-{[(1R)-1,2-Dimethylpropyl]amino}-1-ethyl-N-(4-fluorophenyl)-1H-pyrazolo[3,4-b]pyridine-5-carboxamide], the “Selectivity (PDE4B/PDE5 EMR ratio, not log scale)” value in data set [1] turned out to be 135. Also, the IC50 in data set [1] was 63.1 nM; at PDE5 (human recombinant), 7940 nM.
On the same counts, the results for `CCn1ncc2c(N[C@@H](C)C(C)C)c(C(=O)Nc3ccc(F)cc3)cnc21` [Example 39, 4-{[(1S)-1,2-Dimethylpropyl]amino}-1-ethyl-N-(4-fluorophenyl)-1H-pyrazolo[3,4-b]pyridine-5-carboxamide] are “≧468”, 63.1 nM and above 30200 nM.
On to `CCC(CC)CNC(=O)c1cnc2c(cnn2CC)c1N[C@@H](C)C(C)C` [Example 51, 4-{[(1S)-1,2-Dimethylpropyl]amino}-1-ethyl-N-(2-ethylbutyl)-1H-pyrazolo[3,4-b]pyridine-5-carboxamide], for which the “Selectivity (PDE4B/PDE5 EMR ratio, not log scale)” value in data set [1] turned out to be 437. The values for the IC50 (in data set [1]; at PDE5 (human recombinant)) were 7.94 nM and 3980 nM, respectively.
As for `CCn1ncc2c(NC(C)(C)C)c(C(=O)Nc3ccc(F)cc3)cnc21` [Example 54, 4-(tert-Butylamino)-1-ethyl-N-(4-fluorophenyl)-1H-pyrazolo[3,4-b]pyridine-5-carboxamide], in data set [1], the “Selectivity (PDE4B/PDE5 EMR ratio, not log scale)” value was “≧309” and the IC50 is 100 nM. Further, the IC50 at PDE5 (human recombinant) was above 30200 nM.
With `CCn1ncc2c(N[C@@H](C)C(C)C)c(C(=O)NCc3ccccc3)cnc21` [Example 38, N-Benzyl-4-{[(1S)-1,2-dimethylpropyl]amino}-1-ethyl-1H-pyrazolo[3,4-b]pyridine-5-carboxamide], in data set [1], the “Selectivity (PDE4B/PDE5 EMR ratio, not log scale)” value was 501 and the IC50 was 20 nM. Also, the IC50 at PDE5 (human recombinant) was 10000 nM.
Regarding `O=C(Nc1c(Cl)cncc1Cl)c1ccc(OC(F)F)c(OCC2CC2)c1` [roflumilast], the “D20 for emesis (dose that gives a 20% incidence of emesis)” value in data set [2] was “about 0.46 mg/kg”. For the same compound, the “D50 for ferret neutrophilia (dose which gives 50% inhibition of LPS-induced pulmonary neutrophilia)” value in data set [3] is given as “about 0.42 mg/kg”.
As for `CC[C@@H](C)Nc1c(C(=O)NCc2ccccc2)cnc2c1cnn2CC` [compound 58, reference compound], the IC50 in data set [1] is 15.8 to 63.1 nM; on PDE5 (human recombinant), 631 to 3160 nM.
For `CCC(C)Nc1c(C(=O)Nc2ccccc2)cnc2c1cnn2C(C)C` (stereo not drawn) [Comparative Example 61, reference compound], in data set [1], the “Selectivity (PDE4B/PDE5 EMR ratio, not log scale)” value is given as 21 and the IC50 is 200 nM. Also, on PDE5 (human recombinant), the IC50 is 5010 nM.
The like results for `CCn1ncc2c(N[C@H](C)C(C)C)c(C(=O)NCc3ccccc3)cnc21` [Example 1, N-Benzyl-4-{[(1R)-1,2-dimethylpropyl]amino}-1-ethyl-1H-pyrazolo[3,4-b]pyridine-5-carboxamide] were, in that order, 66, 15.8 nM and 1000 nM.
